# Experimental data reported in the NIST ThermoML archive (doi:10.1016/j.tca.2010.08.021).
# ± gives the expanded uncertainty stated by the source.
# Experiments:
# [1] = Crystal; visual observation
# [2] = Molar enthalpy of transition or fusion; conditions: Crystal; DSC
smiles,measurement,setting,value
N#CCCC#N [butanedinitrile],Normal melting temperature,[1],57.00 ± 1 °C
same,Molar enthalpy of transition or fusion,[2],0.884 ± 0.0478 kcal/mol
O=[N+]([O-])c1c(Cl)c(Cl)c(Cl)c(Cl)c1Cl [pentachloronitrobenzene],Normal melting temperature,[1],145.00 ± 1 °C
same,Molar enthalpy of transition or fusion,[2],4.59 ± 0.143 kcal/mol
